According to US6498145B1, “Use of purified SDG as a hypotensive (vasodilator) agent” (University of Saskatchewan Technologies Incorporated, priority 2000, dated 2002):

Assays:
Format in all cases: in vivo, rat
[1] = system: anesthetized normotensive rats; test: Blood pressure and heart rate of anesthetized normotensive rats, SDG intravenously; details: for maximum fall in mean B.P.: 15 minutes after administration
Protocol: The effects of SDG in the doses of 10 mg, 15 mg, 20 mg and 30 mg/kg given intravenously were investigated on the blood pressure (B.P.) and heart rate of anesthetized normotensive rats. The number of rats used were 8, 3, 9, and 3 respectively for the doses of SDG (10 mg, 15 mg, 20 mg and 30 mg/kg body wt.). The maximum fall in mean B.P. were approximately 38%, 29%, 46% and 57% with 10 mg, 15 mg, 20 mg and 30 mg/kg dose of SDG respectively at 15 minutes after administration of SDG. After 15 minutes the blood pressure tended to recover but the recovery was not complete. The mean blood pressure at the end of three hours after SDG administration were approximately 25% lower than control values. The changes in the systolic and diastolic pressure were similar to the mean blood pressure with various doses of SDG. […] One would expect a very long duration of hypotensive effect when SDG is given orally.

[2] = system: anesthetized normotensive rats; test: Hypotensive effect of SDG after premedication with blockers/inhibitors in anesthetized normotensive rats
Protocol: FIG. 5 is a graph showing changes in the mean arterial blood pressure (B.P.) with SDG (20 mg/kg, intravenously) in the absence or presence of methylene blue (MB) (0.5 mg/kg); methylene blue was given 15 minutes prior to administration of SDG and results are expressed as mean±S.E. *p<0.05, comparison of values at various times with respect to “0” time.
FIG. 9 is a graph showing effects of SDG in the absence or presence of pyrilamine on the mean arterial blood pressure (B.P.) in anesthetized normotensive rats. Pyrilamine was given 15 minutes before administration of SDG. The results are expressed as mean±S.E. *p<0.05, comparison of values at various times with respect to “0” time.
Heart rate was not affected by methylene blue (FIG. 8).

[3] = system: angiotensin converting enzyme (ACE); test: Angiotensin I-induced rise in blood pressure before and after SDG; details: SDG 10 mg/kg intravenously
Protocol: Further experiments were conducted to determine if the SDG-induced fall in the blood pressure is mediated through inhibition of angiotensin converting enzyme (ACE). Angiotensin I is converted to angiotensin II which is vasoconstrictor and raises blood pressure. If SDG lowers blood pressure by inhibiting ACE, then SDG would reduce/prevent the angiotensin I-induced rise in the blood pressure. Experiments were conducted in six normotensive Sprague-Dawley rats. […] However, the effects of angiotensin on arterial pressure of untreated rats remained unaltered. SDG (10 mg/kg) produced a marked fall in the mean arterial pressure.

angiotensin II receptor = test: Angiotensin II response on arterial pressure before and after SDG; details: SDG 10 mg/kg intravenously
Protocol: To determine if the SDG-induced fall in the blood pressure is mediated through the blockade of angiotensin II receptor, experiments were carried out in normotensive Sprague-Dawley rats. Effects of angiotensin II (0.2 μg/kg, I.V.) given before and after 15 minutes, 30 minutes and 60 minutes of SDG (10 mg/kg) administered intravenously were investigated on the arterial pressure of six anesthetized Sprague-Dawley rats. […] The response of angiotensin II on the mean arterial pressure in untreated rats remained unaltered.

[4] = system: anesthetized spontaneous hypertensive rats (SHR); test: Blood pressure of anesthetized spontaneous hypertensive rats, SDG intravenously
Protocol: (§1) The effects of SDG on the arterial pressure of anesthetized spontaneous hypertensive rats (SHR) were investigated to determine (a) if it is effective in lowering blood pressure to the same extent as in normotensive Sprague-Dawley rats; (b) if it is effective when given by intraperitoneal route; (c) if the effect is dose-dependent.
(i) Effects of SDG in the doses of 1 mg, 3 mg and 15 mg/kg given intravenously were investigated on the blood pressures of anesthetized spontaneous hypertensive rats (SHR). The maximum fall in the blood pressure occurred between 15 to 30 minutes of SDG administration after which the blood pressure tended to recover. However, the recovery was short lived. The percent decreases in blood pressures at 30 minutes after SDG were 19, 25 and 31 respectively with 1 mg, 3 mg and 15 mg/kg of SDG. At the end of 4 hours of SDG treatment, the percent decreases were 34, 43 and 36 respectively with 1 mg, 3 mg and 15 mg dose. The fall in the blood pressure initially (at 15 minutes) was maximum with high dose of SDG.

[5] = system: anesthetized spontaneous hypertensive rats (SHR); test: Blood pressure of anesthetized spontaneous hypertensive rats, SDG intraperitoneally; details: for maximum fall in the blood pressure: 30 minutes; for percent decrease in blood pressures: end of four hours
Protocol: as §1
(ii) Effects of SDG in the doses of 5 mg, 10 mg, 50 mg and 200 mg/kg given intraperitoneally were investigated on blood pressure of anesthetized SHR for four hours. The maximum fall in the blood pressure were approximately 7, 37, 50 and 48% respectively with 5 mg, 10 mg, 50 mg and 200 mg of SDG at 30 minutes. At the end of four hours of SDG administration the percent decreases in blood pressures were 31, 42, 39 and 37 respectively with these four doses of SDG.

[6] = system: anesthetized spontaneous hypertensive rats; test: Blood pressure of anesthetized spontaneous hypertensive rats, SDG orally; details: SHR, 100 mg/kg orally
Protocol: (iii) Effects of SDG (100 mg/kg body wt.) given orally were investigated on the blood pressure of anesthetized spontaneous hypertensive rats for four hours. The blood pressures began falling at 15 minutes of SDG administration and maximum fall occurred after three hours. The decreases were of similar magnitude for systolic, diastolic and mean arterial pressures. The systolic, diastolic and mean arterial pressures respectively were 243 mmHg, 176 mmHg and 198 mmHg before administration of SDG. SDG reduced the blood pressure by approximately 25%.

[7] = normotensive Sprague-Dawley rats

For `COc1cc(C[C@@H](CO[C@@H]2O[C@H](CO)[C@@H](O)[C@H](O)[C@H]2O)[C@H](CO[C@@H]2O[C@H](CO)[C@@H](O)[C@H](O)[C@H]2O)Cc2ccc(O)c(OC)c2)ccc1O` [SDG, secoisolariciresinol diglucoside], the “maximum fall in mean B.P.” value ([1]; 10 mg/kg intravenously, normotensive rats) was “approximately 38%”, the “maximum fall in mean B.P.” value ([1]; 15 mg/kg intravenously, normotensive rats) was ~29% and the “maximum fall in mean B.P.” value ([1]; 20 mg/kg intravenously, normotensive rats) was ~46%. For the same compound, the “maximum fall in mean B.P.” value ([1]; 30 mg/kg intravenously, normotensive rats) was ~57%, the heart rate ([1]; any dose (10-30 mg/kg intravenously), normotensive rats) was “not significantly altered” and the “mean blood pressure lower than control values” ([1]; end of three hours after SDG administration, 10-30 mg/kg intravenously) was “approximately 25%”. For the same compound, the “hypotensive effect of SDG after premedication with NG-monomethyl-L-arginine” value ([2]; NG-monomethyl-L-arginine (inhibitor of nitric oxide synthase)) was “not prevented”, the “hypotensive effect of SDG in presence of methylene blue” value ([2]; SDG 20 mg/kg intravenously, methylene blue 0.5 mg/kg 15 minutes prior) was “completely prevented” and the “heart rate in presence of pyrilamine” value ([2]; SDG with pyrilamine) was “practically unchanged”. The “hypotensive effect of SDG after premedication with atropine” value ([2]; atropine (acetylcholine receptor blocker)) was “not prevented”, the “hypotensive effect of SDG after premedication with indomethacin” value ([2]; indomethacin (inhibitor of cyclooxygenase)) was “not prevented” and the “hypotensive effect of SDG in presence of pyrilamine” value ([2]; pyrilamine (histamine receptor blocker) 15 minutes before SDG) was “partly prevented”. For the same compound, the mean arterial pressure [3, 7] was “marked fall”, the “response of angiotensin I on the mean arterial pressure” value ([3]; angiotensin I 0.2 μg/kg intravenously, Sprague-Dawley rats, 60 minutes) was “marked reduction” and the mean arterial pressure (angiotensin II receptor; [7]) was “reduced the mean arterial pressure”. For the same compound, the “angiotensin II response on arterial pressure” value (angiotensin II receptor; angiotensin II 0.2 μg/kg I.V., 15, 30, 60 minutes) was “moderately reduced”, the “percent decrease in blood pressures” value ([4]; 1 mg/kg intravenously, 30 minutes after SDG) was 19% and the “percent decrease in blood pressures” value ([4]; 1 mg/kg intravenously, end of 4 hours) was 34%. The “percent decrease in blood pressures” value ([4]; 3 mg/kg intravenously, 30 minutes after SDG) was 25%, the “percent decrease in blood pressures” value ([4]; 3 mg/kg intravenously, end of 4 hours) was 43% and the “percent decrease in blood pressures” value ([4]; 15 mg/kg intravenously, 30 minutes after SDG) was 31%. For the same compound, the “percent decrease in blood pressures” value ([4]; 15 mg/kg intravenously, end of 4 hours) was 36%, the “time of maximum fall in the blood pressure” value ([4]; 1-15 mg/kg intravenously) was 15 to 30 min and the “maximum fall in the blood pressure” value ([5]; 5 mg/kg intraperitoneally) was “approximately 7%”. For the same compound, the “percent decrease in blood pressures” value ([5]; 5 mg/kg intraperitoneally) was 31%, the “maximum fall in the blood pressure” value ([5]; 10 mg/kg intraperitoneally) was ~37% and the “percent decrease in blood pressures” value ([5]; 10 mg/kg intraperitoneally) was 42%. The “maximum fall in the blood pressure” value ([5]; 50 mg/kg intraperitoneally) was ~50%, the “percent decrease in blood pressures” value ([5]; 50 mg/kg intraperitoneally) was 39% and the “maximum fall in the blood pressure” value ([5]; 200 mg/kg intraperitoneally) was ~48%. The “percent decrease in blood pressures” value ([5]; 200 mg/kg intraperitoneally) was 37%, the “time at which blood pressures began falling” value [6] was 15 min and the “reduction of blood pressure” value ([6]; observed for four hours, systolic, diastolic and mean similar) was “approximately 25%”.
